From paper PMC11939327, “Chaetocin, a Natural Inhibitor of Transketolase, Suppresses the Non-Oxidative Pentose Phosphate Pathway and Inhibits the Growth of Drug-Resistant Non-Small Cell Lung Cancer” (Antioxidants, 2025)

Target: T1, transketolase (TKT) (Homo sapiens, UniProt P29401)
T1 sequence (P29401 1-623): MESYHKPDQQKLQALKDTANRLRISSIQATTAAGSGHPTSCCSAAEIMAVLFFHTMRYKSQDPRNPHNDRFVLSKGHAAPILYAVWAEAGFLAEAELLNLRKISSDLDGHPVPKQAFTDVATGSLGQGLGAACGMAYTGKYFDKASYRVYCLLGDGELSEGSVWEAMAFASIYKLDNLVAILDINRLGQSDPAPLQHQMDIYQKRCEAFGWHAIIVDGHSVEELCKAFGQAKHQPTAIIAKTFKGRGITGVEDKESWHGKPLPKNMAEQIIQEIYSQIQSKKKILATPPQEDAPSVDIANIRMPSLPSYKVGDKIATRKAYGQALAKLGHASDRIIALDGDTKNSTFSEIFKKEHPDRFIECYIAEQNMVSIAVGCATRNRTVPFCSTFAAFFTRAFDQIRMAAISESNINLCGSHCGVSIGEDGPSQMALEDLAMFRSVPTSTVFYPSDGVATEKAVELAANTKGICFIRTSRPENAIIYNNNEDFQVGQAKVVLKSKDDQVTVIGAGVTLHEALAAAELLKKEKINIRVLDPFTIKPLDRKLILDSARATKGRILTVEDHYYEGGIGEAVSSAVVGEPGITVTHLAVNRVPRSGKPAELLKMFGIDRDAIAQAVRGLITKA
Experiment: Bio-layer interferometry with biotinylated TKT on SA biosensors; supported by DARTS and CETSA in A549/DDP cells
Format: binding

Q: For CN1C(=O)[C@@]23C[C@]4([C@]56C[C@@]78SS[C@@](CO)(C(=O)N7[C@H]5Nc5ccccc56)N(C)C8=O)c5ccccc5N[C@@H]4N2C(=O)[C@]1(CO)SS3 [chaetocin], which Kd is on record?
A: 63.2 µM
